Here are results for 32 compounds from patent US20240391926A1, “SPIROINDOLINONE COMPOUNDS AS Kv1.3 POTASSIUM SHAKER CHANNEL BLOCKERS” (D.E. Shaw Research, LLC, priority 2021, published 2024).

Structures are written as SMILES. Some results are limits rather than exact numbers.

The test deals with T1, Kv1.3 potassium channel (Homo sapiens, UniProt P22001).
T1 construct: expressed in transfected cells
Briefly: Kv1.3 potassium channel blocker activity, automated whole-cell patch clamp (Patchliner) in CHO-K1 cells stably expressing Kv1.3. It is filed as cell-based. The conditions noted are these: 30 nM-100 μM. The procedure:
This assay is used to evaluate the disclosed compounds' activities as Kv1.3 potassium channel blockers.
CHO-K1 cells stably expressing Kv1.3 were grown in DMEM containing 10% heat-inactivated FBS, 1 mM sodium pyruvate, 2 mM L-glutamine, and G418 (500 μg/ml). Cells were grown in culture flasks at 37° C. in a 5% CO2-humidified incubator.
The cells were bathed in an extracellular solution containing 140 mM NaCl, 4 mM KCl, 2 mM CaCl2), 1 mM MgCl2, 5 mM glucose, 10 mM HEPES; pH adjusted to 7.4 with NaOH; 295-305 mOsm. The internal solution contained 50 mM KCl, 10 mM NaCl, 60 mM KF, 20 mM EGTA, 10 mM HEPES; pH adjusted to 7.2 with KOH; 285 mOsm. All compounds were dissolved in DMSO at 30 mM. Compound stock solutions were freshly diluted with external solution to concentrations of 30 nM, 100 nM, 300 nM, 1 μM, 3 μM, 10 μM, 30 μM and 100 μM. The highest content of DMSO (0.3%) was present in 100 μM.
The currents were evoked by applying 100 ms depolarizing pulses from −90 mV (holding potential) to +40 mV were applied with 0.1 Hz frequency. Control (compound-free) and compound pulse trains for each compound concentration applied contained 20 pulses. 10-second breaks were used between pulse trains (see Table A below).
Whole-cell current recordings and compound application were enabled by means of an automated patch clamp platform Patchliner (Nanion Technologies GmbH). EPC 10 patch clamp amplifier (HEKA Elektronik Dr. Schulze GmbH) along with Patchmaster software (HEKA Elektronik Dr. Schulze GmbH) was used for data acquisition. Data were sampled at 10 kHz without filtering. Passive leak currents were subtracted online using a P/4 procedure (HEKA Elektronik Dr. Schulze GmbH). Increasing compound concentrations were applied consecutively to the same cell without washouts in between. Total compound incubation time before the next pulse train was not longer than 10 seconds. Peak current inhibition was observed during compound equilibration.
AUC and peak values were obtained with Patchmaster (HEKA Elektronik Dr. Schulze GmbH). To determine IC50, the last single pulse in the pulse train corresponding to a given compound concentration was used. Obtained AUC and peak values in the presence of compound were normalized to control values in the absence of compound. Using Origin (OridinLab), IC50 was derived from data fit to Hill equation: Icompound/Icontrol=(100−A)/(1+([compound]/IC50)nH)+A, where IC50 value is the concentration at which current inhibition is half-maximal, [compound] is the applied compound concentration, A is the fraction of current that is not blocked and nH is the Hill coefficient.
Background: In patch-clamp work, channel activity is measured electrically.

T1 sequence (P22001 whole entry): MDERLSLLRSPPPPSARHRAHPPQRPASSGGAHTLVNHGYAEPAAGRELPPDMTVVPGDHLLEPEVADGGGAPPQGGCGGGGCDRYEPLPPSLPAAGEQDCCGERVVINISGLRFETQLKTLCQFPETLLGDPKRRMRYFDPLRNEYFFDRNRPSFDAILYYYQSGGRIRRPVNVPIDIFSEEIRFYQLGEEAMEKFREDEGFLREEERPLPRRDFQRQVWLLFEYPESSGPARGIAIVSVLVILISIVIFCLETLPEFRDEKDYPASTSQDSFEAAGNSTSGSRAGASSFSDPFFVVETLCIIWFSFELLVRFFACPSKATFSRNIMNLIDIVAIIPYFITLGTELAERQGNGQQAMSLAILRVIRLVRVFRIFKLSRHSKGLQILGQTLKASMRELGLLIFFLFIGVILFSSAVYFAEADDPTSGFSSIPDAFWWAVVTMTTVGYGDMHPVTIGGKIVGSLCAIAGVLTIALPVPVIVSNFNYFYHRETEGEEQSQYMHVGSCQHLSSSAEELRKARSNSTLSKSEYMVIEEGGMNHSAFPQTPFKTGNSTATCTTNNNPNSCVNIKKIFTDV

Take `O=C1Nc2cc(Cl)c(Cl)cc2[C@]12CCN(C(=O)[C@H]1C[C@@H](O)C1)C2` [Compound 25, (S)-5,6-dichloro-1′-((1s,3R)-3-hydroxycyclobutane-1-carbonyl)spiro[indoline-3,3′-pyrrolidin]-2-one]: the IC50 was under 3 µM.
Take `O=C(C1CNCC(F)(F)C1)N1CC[C@]2(C1)C(=O)Nc1cc(Cl)c(Cl)cc12` (stereo partly drawn) [Compound 50, (3S)-5,6-dichloro-1′-(5,5-difluoropiperidine-3-carbonyl)spiro[indoline-3,3′-pyrrolidin]-2-one]: the half-maximal inhibitory concentration (IC50) was under 1 µM.
In the case of `O=C(N1CC[C@]2(C1)C(=O)Nc1cc(Cl)c(Cl)cc12)C12CNCC1C2` (single isomer, unassigned; isomer 2) [Compound 33] it was under 1 µM; in that of `O=C(C[C@@H](O)CO)N1CC[C@]2(C1)C(=O)Nc1cc(Cl)c(Cl)cc12` [Compound 77, (S)-5,6-dichloro-1′-((R)-3,4-dihydroxybutanoyl)spiro[indoline-3,3′-pyrrolidin]-2-one], under 10 µM.
Next, `O=C1Nc2cc(Cl)c(Cl)cc2[C@]12CCN(c1ccn[nH]1)C2` (single isomer, unassigned) [Compound 153]: under 3 µM; `NS(=O)(=O)N1CC[C@]2(C1)C(=O)Nc1cc(Cl)c(Cl)cc12` [Compound 142, (S)-5,6-dichloro-2-oxospiro[indoline-3,3′-pyrrolidine]-1′-sulfonamide]: under 3 µM.
On to `Cc1c(Cl)cc2c(c1F)NC(=O)[C@@]21CCN(C(=O)CO)C1` [Compound 127, (S)-5-chloro-7-fluoro-1′-(2-hydroxyacetyl)-6-methylspiro[indoline-3,3′-pyrrolidin]-2-one], for which the IC50 was under 1 µM.
Next, `CC(C)(O)C(=O)N1CC[C@]2(C1)C(=O)Nc1cc(Cl)c(Cl)cc12` [Compound 86, (S)-5,6-dichloro-1′-(2-hydroxy-2-methylpropanoyl)spiro[indoline-3,3′-pyrrolidin]-2-one]: under 3 µM.
Next, `CC[C@H](O)C(=O)N1CC[C@]2(C1)C(=O)Nc1cc(Cl)c(Cl)cc12` [Compound 91, (S)-5,6-dichloro-1′-((S)-2-hydroxybutanoyl)spiro[indoline-3,3′-pyrrolidin]-2-one]: under 3 µM.
For the compound `C[C@H]1C[C@@]2(CN1C(=O)CO)C(=O)Nc1cc(Cl)c(Cl)cc12` (single isomer, unassigned; isomer 4) [Compound 126, 5,6-dichloro-1′-(2-hydroxyacetyl)-5′-methyl-1H-spiro[indole-3,3′-pyrrolidin]-2-one isomer 4], the IC50 was under 10 µM.
Next, `O=C([C@H]1CC[C@@H](O)[C@H](O)C1)N1CC[C@]2(C1)C(=O)Nc1cc(Cl)c(Cl)cc12` (single isomer, unassigned; isomer 1) [Compound 107]: under 1 µM; `O=C([C@@H]1CC[C@](O)(CO)C1)N1CC[C@]2(C1)C(=O)Nc1cc(Cl)c(Cl)cc12` (single isomer, unassigned; isomer 2) [Compound 98]: under 3 µM; `O=C(C[C@H]1CCCN1)N1CC[C@]2(C1)C(=O)Nc1cc(Cl)c(Cl)cc12` [Compound 59, (S)-5,6-dichloro-1′-(2-((R)-pyrrolidin-2-yl)acetyl)spiro[indoline-3,3′-pyrrolidin]-2-one]: under 3 µM.
In the case of `O=C(C1C[C@H](O)[C@@H](O)C1)N1CC[C@]2(C1)C(=O)Nc1cc(Cl)c(Cl)cc12` (relative stereo) [Compound 106] it was under 1 µM; in that of `O=C(N1CC[C@]2(C1)C(=O)Nc1cc(Cl)c(Cl)cc12)[C@]1(F)CCNC1` (single isomer, unassigned; isomer 1) [Compound 28], under 1 µM; in that of `O=C(N1CC[C@]2(C1)C(=O)Nc1cc(Cl)c(Cl)cc12)C1(F)CCNCC1` [Compound 34, (S)-5,6-dichloro-1′-(4-fluoropiperidine-4-carbonyl)spiro[indoline-3,3′-pyrrolidin]-2-one], under 1 µM.
In the case of `Cn1ccc(C(=O)N2CC[C@]3(C2)C(=O)Nc2cc(Cl)c(Cl)cc23)cc1=O` [Compound 82, (S)-5,6-dichloro-1′-(1-methyl-2-oxo-1,2-dihydropyridine-4-carbonyl)spiro[indoline-3,3′-pyrrolidin]-2-one] it was under 3 µM; in that of `O=C([C@@H]1CC[C@@H](O)C1)N1CC[C@]2(C1)C(=O)Nc1cc(Cl)c(Cl)cc12` (single isomer, unassigned; isomer 2) [Compound 64], under 3 µM; in that of `O=C(CC1CNC1)N1CC[C@]2(C1)C(=O)Nc1cc(Cl)c(Cl)cc12` [Compound 26, (S)-1′-(2-(azetidin-3-yl)acetyl)-5,6-dichlorospiro[indoline-3,3′-pyrrolidin]-2-one], under 1 µM.
As for `O=C(Cc1cc[nH]n1)N1CC[C@]2(C1)C(=O)Nc1cc(Cl)c(Cl)cc12` [Compound 73, (S)-1′-(2-(1H-pyrazol-3-yl)acetyl)-5,6-dichlorospiro[indoline-3,3′-pyrrolidin]-2-one], the concentration for half-maximal inhibition (IC50) was under 3 µM.
In the case of `O=C([C@@H]1CNC[C@@H]1O)N1CC[C@]2(C1)C(=O)Nc1cc(Cl)c(Cl)cc12` (single isomer, unassigned) [Compound 1] it was under 1 µM; in that of `O=C([C@H]1CCCN1)N1CC[C@]2(C1)C(=O)Nc1cc(Cl)c(Cl)cc12` [Compound 23, (S)-1′-(D-prolyl)-5,6-dichlorospiro[indoline-3,3′-pyrrolidin]-2-one], under 3 µM.
`O=C([C@H]1CCCNC1)N1CC[C@]2(C1)C(=O)Nc1cc(Cl)c(Cl)cc12` [Compound 16, (S)-5,6-dichloro-1′-((S)-piperidine-3-carbonyl)spiro[indoline-3,3′-pyrrolidin]-2-one] gave a concentration for half-maximal inhibition (IC50) of under 1 µM.
In the case of `CC(C)C[C@@H](N)C(=O)N1CC[C@]2(C1)C(=O)Nc1cc(Cl)c(Cl)cc12` [Compound 44, (S)-1′-(D-leucyl)-5,6-dichlorospiro[indoline-3,3′-pyrrolidin]-2-one], the concentration for half-maximal inhibition (IC50) is under 3 µM.
In the case of `O=C([C@H](O)CO)N1CC[C@]2(C1)C(=O)Nc1cc(Cl)c(Cl)cc12` [Compound 159, (S)-5,6-dichloro-1′-((R)-2,3-dihydroxypropanoyl)spiro[indoline-3,3′-pyrrolidin]-2-one] it was under 3 µM; in that of `O=C1Nc2cc(Cl)c(Cl)cc2[C@]12CCN(C(=O)[C@H]1CC[C@@H](O)CC1)C2` [Compound 51, (S)-5,6-dichloro-1′-((1s,4R)-4-hydroxycyclohexane-1-carbonyl)spiro[indoline-3,3′-pyrrolidin]-2-one], under 3 µM.
Next, `O=C1Nc2cc(Cl)c(Cl)cc2[C@]12CCN(C(=O)[C@H]1C[C@H](O)C1)C2` [Compound 27, (S)-5,6-dichloro-1′-((1r,3S)-3-hydroxycyclobutane-1-carbonyl)spiro[indoline-3,3′-pyrrolidin]-2-one]: under 3 µM; `Nc1cnc(N2CC[C@]3(C2)C(=O)Nc2cc(Cl)c(Cl)cc23)cn1` [Compound 144, (3S)-1′-(5-aminopyrazin-2-yl)-5,6-dichloro-1H-spiro[indole-3,3′-pyrrolidin]-2-one]: under 1 µM; `C[C@H]1CN(C(=O)CO)CC12C(=O)Nc1cc(Cl)c(Cl)cc12` (single isomer, unassigned; diastereoisomer 2) [Compound 131, 5,6-dichloro-1′-(2-hydroxyacetyl)-4′-methylspiro[indoline-3,3′-pyrrolidin]-2-one diastereoisomer 2]: under 1 µM.
For `O=C(N1CC[C@]2(C1)C(=O)Nc1cc(Cl)c(Cl)cc12)C1(O)CC1` [Compound 85, (S)-5,6-dichloro-1′-(1-hydroxycyclopropane-1-carbonyl)spiro[indoline-3,3′-pyrrolidin]-2-one], the IC50 was under 10 µM.
Next, `O=C([C@H]1CC[C@H](CO)C1)N1CC[C@]2(C1)C(=O)Nc1cc(Cl)c(Cl)cc12` (relative stereo) [Compound 99, (3S)-5,6-dichloro-1′-[(1R,3R)-rel-3-(hydroxymethyl)cyclopentanecarbonyl]-1H-spiro[indole-3,3′-pyrrolidin]-2-one isomer 1]: under 3 µM; `C[C@@H]1CN(C(=O)CO)CC12C(=O)Nc1cc(Cl)c(Cl)cc12` (single isomer, unassigned; diastereoisomer 1) [Compound 130, 5,6-dichloro-1′-(2-hydroxyacetyl)-4′-methylspiro[indoline-3,3′-pyrrolidin]-2-one diastereoisomer 1]: under 30 µM.

In general, IC50 refers to the midpoint of a concentration-inhibition curve.
